For 15 compounds, IC50 and melting point results are on record in US20090005374A1, “IMIDAZOPYRIDINYL THIAZOLYL HISTONE DEACETYLASE INHIBITORS” (priority 2007, published 2009).

One data set deals with HDAC 1 (Homo sapiens, UniProt Q13547). Kind of data set: HDAC 1 fluorogenic peptide substrate assay with 3-hour enzyme/compound preincubation. The format is biochemical. The conditions noted are these: 3-hour preincubation of enzyme and compound; read-out: HDAC 1 inhibitory activity (IC50) 3-hour preincubation. How it is done: The second assay is similar to the first assay described above, except that preincubation is carried out for about 3 hours after the enzyme is introduced. The test compound was suspended in, and titrated in DMSO. It was then spotted into a 384-well test plate. The enzyme, HDAC 1 or 6, was diluted in the same assay buffer as used in the previous assay and added to the pre-spotted compound. The enzyme/compound mix was incubated at room temperature for about 3 hours. The peptide substrate containing a fluorophore/quencher pair was diluted in the assay buffer and added to the compound/enzyme mix initiating the reaction. The reaction incubated at room temperature for 45 minutes. A concentrated developer solution was diluted in the assay buffer, and added to the reaction. The reaction was incubated at room temperature for about 15 minutes and relative fluorescence was read on an instrument reader.

pIC50: −log10 of the molar value.

Chain of HDAC 1 (Q13547 whole entry, species assumed): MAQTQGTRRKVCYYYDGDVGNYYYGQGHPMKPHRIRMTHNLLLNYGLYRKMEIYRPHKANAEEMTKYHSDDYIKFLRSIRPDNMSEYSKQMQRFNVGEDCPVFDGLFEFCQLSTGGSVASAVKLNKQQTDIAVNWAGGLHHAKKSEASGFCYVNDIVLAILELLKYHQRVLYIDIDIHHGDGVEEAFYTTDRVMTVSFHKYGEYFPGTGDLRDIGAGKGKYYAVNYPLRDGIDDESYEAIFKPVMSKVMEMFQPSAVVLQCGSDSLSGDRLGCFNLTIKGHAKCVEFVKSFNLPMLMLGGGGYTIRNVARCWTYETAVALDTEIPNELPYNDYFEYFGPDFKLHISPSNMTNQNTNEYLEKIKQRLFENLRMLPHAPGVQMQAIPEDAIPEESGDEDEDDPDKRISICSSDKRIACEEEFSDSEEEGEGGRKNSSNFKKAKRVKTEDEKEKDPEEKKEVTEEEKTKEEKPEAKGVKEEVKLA

In the case of `Cc1nc2ccc(Cl)cn2c1-c1csc(Nc2ccc(C(=O)Nc3ccccc3N)cc2)n1` [Example 8, N-(2-Amino-phenyl)-4-[4-(6-chloro-2-methyl-imidazo[1,2-a]pyridin-3-yl)-thiazol-2-ylamino]-benzamide], the pIC50 on HDAC 1 is 7.29. Consider `Cc1nc2ccccn2c1-c1csc(N(CC(F)(F)F)c2ccc(C(=O)Nc3ccccc3N)cc2)n1` [Example 21a, N-(2-Amino-phenyl)-4-[[4-(2-methyl-imidazo[1,2-a]pyridin-3-yl)-thiazol-2-yl]-(2,2,2-trifluoro-ethyl)-amino]-benzamide], for which the negative-log IC50 (pIC50) at HDAC 1 was 6.83. In turn, `Cc1sc(Nc2ccc(C(=O)NO)cc2)nc1-c1cnc2ccccn12` [Example 18, N-Hydroxy-4-(4-imidazo[1,2-a]pyridin-3-yl-5-methyl-thiazol-2-ylamino)-benzamide] registered a melting point of 262.6 °C. Moreover, the pIC50 on HDAC 1 was 7.33.

Consider `Nc1ncccc1NC(=O)c1ccc(Nc2nc(-c3cnc4ccccn34)cs2)cc1` [Example 16, N-(2-Amino-pyridin-3-yl)-4-(4-imidazo[1,2-a]pyridin-3-yl-thiazol-2-ylamino)-benzamide], for which the pIC50 at HDAC 1 is 5.04. Compound `Cc1nc2ccccn2c1-c1nc(Nc2ccc(C(=O)Nc3ccccc3N)cc2)sc1C` [Example 6, N-(2-Amino-phenyl)-4-[5-methyl-4-(2-methyl-imidazo[1,2-a]pyridin-3-yl)-thiazol-2-ylamino]-benzamide] gave a melting point of 250.1 °C. Moreover, the pIC50 at HDAC 1 was 7.67. Compound `COc1ccn2c(-c3csc(Nc4ccc(C(=O)Nc5ccccc5N)cc4)n3)c(C)nc2c1` [Example 11, N-(2-Amino-phenyl)-4-[4-(7-methoxy-2-methyl-imidazo[1,2-a]pyridin-3-yl)-thiazol-2-ylamino]-benzamide] had a melting point of 159.7 °C. On HDAC 1, the negative-log IC50 (pIC50) was 7.24. Turning to `Cc1nc2ccccn2c1-c1nc(Nc2ccc(C(=O)NO)cc2)sc1C` [Example 5, N-Hydroxy-4-[5-methyl-4-(2-methyl-imidazo[1,2-a]pyridin-3-yl)-thiazol-2-ylamino]-benzamide], the melting point worked out at 200.5 °C. Moreover, the pIC50 at HDAC 1 was 7.27. In the case of `Nc1ccccc1NC(=O)c1ccc(Nc2ncc(-c3cnc4ccccn34)s2)cc1` [Example 20, N-(2-Amino-phenyl)-4-(5-imidazo[1,2-a]pyridin-3-yl-thiazol-2-ylamino)-benzamide], the pIC50 on HDAC 1 was 7.32.

Regarding `Cc1sc(Nc2ccc(C(=O)Nc3ccccc3N)cc2)nc1-c1cnc2ccccn12` [Example 17, N-(2-Amino-phenyl)-4-(4-imidazo[1,2-a]pyridin-3-yl-5-methyl-thiazol-2-ylamino)-benzamide], the melting point came to 186.5 °C. Also, on HDAC 1, the pIC50 is 7.61. Regarding `COc1ccn2c(-c3csc(Nc4ccc(C(=O)NO)cc4)n3)c(C)nc2c1` [Example 12, N-Hydroxy-4-[4-(7-methoxy-2-methyl-imidazo[1,2-a]pyridin-3-yl)-thiazol-2-ylamino]-benzamide], the pIC50 on HDAC 1 is 7.20. `Cc1nc2ccccn2c1-c1csc(N(CC(F)(F)F)c2ccc(C(=O)NO)cc2)n1` [Example 21b, N-Hydroxy-4-[[4-(2-methyl-imidazo[1,2-a]pyridin-3-yl)-thiazol-2-yl]-(2,2,2-trifluoro-ethyl)-amino]-benzamide]: at HDAC 1, the pIC50 is 5.25. For `Cc1nc2ccc(C(F)(F)F)cn2c1-c1csc(Nc2ccc(C(=O)NO)cc2)n1` [Example 9, N-Hydroxy-4-[4-(2-methyl-6-trifluoromethyl-imidazo[1,2-a]pyridin-3-yl)-thiazol-2-ylamino]-benzamide], the melting point is 183.2 °C. Also, on HDAC 1, the pIC50 was 6.81.

As for `Cc1nc2ccc(Cl)cn2c1-c1csc(Nc2ccc(C(=O)NO)cc2)n1` [Example 7, 4-[4-(6-Chloro-2-methyl-imidazo[1,2-a]pyridin-3-yl)-thiazol-2-ylamino]-N-hydroxy-benzamide], the pIC50 on HDAC 1 is 7.66. As to `Cc1nc2ccc(C(F)(F)F)cn2c1-c1csc(Nc2ccc(C(=O)Nc3ccccc3N)cc2)n1` [Example 10, N-(2-Amino-phenyl)-4-[4-(2-methyl-6-trifluoromethyl-imidazo[1,2-a]pyridin-3-yl)-thiazol-2-ylamino]-benzamide], the pIC50 at HDAC 1 was 7.23. On the same count and under the same terms, in the case of `Cc1sc(Nc2ccc(C(=O)Nc3nn(-c4ccccc4)cc3N)cc2)nc1-c1cnc2ccccn12` [Example 19, N-(4-Amino-1-phenyl-1H-pyrazol-3-yl)-4-(4-imidazo [1,2-a]pyridin-3-yl-5-methyl-thiazol-2-ylamino)-benzamide] it was 5.22.

A word on the pIC50: it is −log10 of the IC50, conventionally taken in molar units. Usually melting point stands for the temperature of the solid-liquid transition.
